Results on 20 compounds are retold here after ChEMBL document CHEMBL1201862, “PubChem BioAssay data set” (2004).

Holding throughout (test): NCI-60 cell line screen, 48 h
Assay [1] relates to LXFL 529.
Assay [2] relates to DMS-273.
Assay [3] deals with M19-MEL.
Assay [4] has as its system SNB-78.
Assay [5] deals with DMS-114.
The test system of assay [6] is XF498.
In assay [7] the test system is DLD-1.
In assay [8] the test system is HOP-18.
The subject of assay [9] is RXF 631.

Counter-ions that a name gives are not always drawn.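 Exposure lasted 48 hours, with cells grown in 96-well plates and compounds tested at five concentrations. The concentration for 50% growth inhibition is given as GI50.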 Active and inactive are the calls of the source. Cut-off read from the data, not from the text of the source: active = GI50 up to about 1.1 µM and inactive = higher.

As to `O=C1CCC(=O)N1Cc1ccccc1/N=[N+](\[O-])c1ccccc1CN1C(=O)CCC1=O`, the GI50 in assay [1], in assay [2], in assay [3], in [4], in [5] and in assay [6] was > 100 µM (inactive) each time.

Consider `O=[N+]([O-])c1cc(Cl)ccc1S(=O)(=O)c1ccc(Cl)cc1[N+](=O)[O-]`, for which the GI50 in assay [1] is 14.1 µM (inactive); in assay [2] it was 14.2 µM (inactive); in assay [7], 15.6 µM (inactive); in assay [8], 16.7 µM (inactive); in assay [3], 15 µM (inactive); in assay [4], 16.1 µM (inactive). Moreover, in [5], the GI50 is 11.3 µM (inactive).

For `C=CCCC(O)c1cc(C)c(O)c(C)c1` (configuration not stated), the GI50 in assay [1], in assay [8], in assay [3], in assay [4] and in assay [5] was > 100 µM (inactive) in each case.

As for `CSc1nc(C)cc(=O)n1C1OC(COC(C)=O)C(OC(C)=O)C(OC(C)=O)C1OC(C)=O` (configuration not stated), the GI50 in assay [1], in assay [2], in [7], in [3], in assay [5] and in assay [6] was > 100 µM (inactive) each time.

Consider `O=C(CCC(=O)Nc1ccc(Cl)c(Cl)c1)CC(=O)c1ccc(F)cc1`, for which the GI50 in [1], in assay [2], in [9], in assay [7], in assay [8] and in assay [3] was > 100 µM (inactive) in each case. Besides, the GI50 in assay [4] and in assay [5] was > 100 µM (inactive) throughout.

In the case of `C[C@]12CC=CC(=O)[C@@]1(C)CCC(=O)C2`, the GI50 in assay [1], in assay [2], in assay [9], in [7], in assay [3] and in assay [4] was > 100 µM (inactive) each time. Also, the GI50 in assay [5] is > 100 µM (inactive); in assay [6] it was 75.7 µM (inactive).

For `COc1ccc(C[P+]2(c3ccccc3)CCCCC2)cc1.O=[N+]([O-])c1ccc(C[P+]2(c3ccccc3)CCCCC2)cc1.[O-][Cl+3]([O-])([O-])[O-].[O-][Cl+3]([O-])([O-])[O-]`, the GI50 in assay [1] is 16.4 µM (inactive); in [2] it was 60 µM (inactive); in assay [9], > 100 µM (inactive); in [7], > 100 µM (inactive); in [8] it was 15.4 µM (inactive); in assay [5] it was 36.1 µM (inactive). For the same compound, in assay [6], the GI50 was > 100 µM (inactive).

As to `Cc1nnc(N/N=C(/C(=O)C(C#N)c2ccc(Cl)cc2)C(C#N)c2ccc(Cl)cc2)n1N` (configuration not stated), the GI50 in assay [1] was 13.4 µM (inactive); in assay [2], 19 µM (inactive); in assay [9], 19.8 µM (inactive); in assay [7], 20.1 µM (inactive); in [8] it was 16.4 µM (inactive); in assay [4], 24.1 µM (inactive). The GI50 was 15.7 µM (inactive) in assay [5] and 28.8 µM (inactive) in assay [6].

`C=C(C)C1CC2C(C)=C(OC(C)=O)C1n1c(=O)c3cc4ccccc4cc3c(=O)n12` (configuration not stated): the GI50 in [1] was 69.7 µM (inactive); in assay [2], 54.2 µM (inactive); in [7], 53.1 µM (inactive); in assay [8], > 100 µM (inactive); in assay [3], 74 µM (inactive); in assay [4], 95.9 µM (inactive). Further, the GI50 in assay [5] was 65.8 µM (inactive).

As to `Clc1ccc2c(c1)C1C(CO2)C(c2ccccc2)=NN1c1ccccc1` (configuration not stated), the GI50 in [1] was 29.6 µM (inactive); in assay [2] it was 28.7 µM (inactive); in assay [7] it was 35.1 µM (inactive); in assay [8], 1.07 µM (active); in [3] it was 26.5 µM (inactive); in assay [4] it was 29.9 µM (inactive). Also, the GI50 in [5] is 24.6 µM (inactive); in assay [6] it was 14.9 µM (inactive).

For `NCCSSCCN` [CYSTAMINE HYDROCHLORIDE], the GI50 in assay [1], in assay [2], in assay [9], in [7], in assay [8] and in assay [3] was > 100 µM (inactive) in each case. Also, the GI50 in [4], in assay [5] and in assay [6] was > 100 µM (inactive) in each case.

With `CCCCCCCCCCCCCCCC(=O)OCC1OC(n2cc(F)c(=O)[nH]c2=O)C(NC(=O)OCc2ccccc2)C(O)C1O` (configuration not stated), the GI50 in assay [1] was 16.7 µM (inactive); in assay [2] it was 16.8 µM (inactive); in assay [9], 18.3 µM (inactive); in assay [8], 16.8 µM (inactive); in [3], 20.3 µM (inactive); in [4] it was 20.6 µM (inactive). The GI50 in assay [5] was 14 µM (inactive); in [6], 16.3 µM (inactive).

On to `CC1(C)NC(=O)N(CCCCCCN2C(=O)NC(C)(C)C2=O)C1=O`, for which the GI50 in assay [1], in [2], in assay [7], in [8], in [3] and in assay [4] was > 100 µM (inactive) in each case. Further, the GI50 in assay [5] is > 100 µM (inactive).

For the compound `NCCOCCOCC(=O)O`, the GI50 in [1], in assay [2], in assay [3], in assay [4] and in assay [5] was > 100 µM (inactive) in each case.

On to `CCOC(=O)C1(C)CCC(C(=O)OC)C1=O` (configuration not stated), for which the GI50 in assay [1] is > 100 µM (inactive); in assay [7] it was 57.4 µM (inactive); in assay [8] it was > 100 µM (inactive); in assay [3], 73.3 µM (inactive); in [4], > 100 µM (inactive); in assay [5], 19.8 µM (inactive). Moreover, in assay [6], the GI50 was > 100 µM (inactive).

Take `O=C1C2Cc3ccccc3CN2C(=O)N1CCN1CCCC1` (configuration not stated): the GI50 in assay [1], in [2], in [9], in assay [7], in [3] and in assay [5] was > 100 µM (inactive) throughout. Besides, the GI50 in assay [6] is > 100 µM (inactive).

With `O=c1/c(=C/c2ccc3c(c2)OCO3)sc2nnc(-c3ccco3)n12`, the GI50 in assay [1], in assay [2], in [7], in [8], in assay [3] and in assay [4] was > 100 µM (inactive) in each case. Also, the GI50 in assay [5] and in assay [6] was > 100 µM (inactive) throughout.

As to `COc1cc(/C=C/C(=N\NC(=O)c2ccccc2)c2sc(Nc3ccc(Cl)c(Cl)c3)nc2C)ccc1O`, the GI50 was 31.6 µM (inactive) in assay [1]; 20.6 µM (inactive) in assay [9]; 28.7 µM (inactive) in assay [7]; 24.1 µM (inactive) in assay [8]; 28.2 µM (inactive) in assay [3]; 29.3 µM (inactive) in [4]. The GI50 was 23.8 µM (inactive) in assay [5] and 32.9 µM (inactive) in assay [6].

For `C=C1C2C[C@@H]3OC4CC5O[C@]6(CC5OC4C(C)C3OC(=O)CC3CC[C@@H]4OC5C7OC8C[C@](CCC9CC(=C)[C@H](CCC(C[C@H]1C)O2)O9)(OC7C4O3)O[C@@H]85)C[C@@H]1O[C@@]2(CC(C)[C@@H]3OC(CC(=O)CCO)C(O)C[C@@H]3O2)CC(C)[C@@H]1O6` (some centres not stated), the GI50 in assay [1] was < 0.001 µM (active); in assay [2], < 0.001 µM (active); in assay [7], < 0.001 µM (active); in assay [4], 0.00157 µM (active); in assay [6], < 0.001 µM (active).

`O=C(CO)CC(=O)C(=O)Nc1ccccc1`: the GI50 is > 100 µM (inactive) in [1]; > 100 µM (inactive) in assay [2]; 46 µM (inactive) in [9]; > 100 µM (inactive) in [7]; > 100 µM (inactive) in assay [8]; > 100 µM (inactive) in assay [3]. Moreover, the GI50 in assay [4] and in [5] was > 100 µM (inactive) in each case.
